In US20230364051A1, “FORMULATIONS AND METHODS FOR IMPROVING AVIAN HEALTH” (CORNELL UNIVERSITY, priority 2022, published 2023):
Marks after values point to notes of the source that are not given here.

Key:
Assay type in all cases: in vivo, Gallus gallus
[1] = Pectoral muscle glycogen analysis after intraamniotic administration; conditions: for Average Glycogen: day 17, pectoral muscle at hatch
Experimental: (§1) Cornish-cross fertile broiler eggs (Gallus gallus, n = 39) were obtained from a commercial hatchery (Moyer’s chicks, Quakertown, PA, USA). The eggs were incubated under optimal conditions at the Cornell University Animal Science Poultry Farm Incubator [18]. All animal protocols were approved by Cornell University Institutional Animal Care and Use committee (IACUC #2020-0077). At day 17 of embryonic incubation, eggs containing viable embryos were weighed and divided into 5 groups, with all treatment groups assigned eggs of similar weight frequency distribution. Each group was then injected with the specific solution (1 mL per egg) with a 21-gauge needle into the amniotic fluid. Treatments in powder form were separately diluted in DI H2O. Two treatment groups (1.25, 2.5 wt. %), two controls (H2O and non-injected), and a positive control (5 wt. % inulin) were administered. After injection, the injection holes were sealed with cellophane tape and the eggs were placed in hatching baskets such that each treatment was equally represented at each incubator location. Immediately upon hatch (day 21), blood was taken for hemoglobin determination and all chicks were then euthanized by CO2 exposure. The small intestine, pectoral muscle, cecum, and liver were collected, immediately frozen in liquid nitrogen, and then stored in a -80° C. freezer until analysis.
Glycogen analysis was obtained from pectoralis muscle as previously described. Briefly, the frozen pectoral muscle samples were homogenized in 8 wt. % perchloric acid. Samples were then centrifuged at 12,000 × g for 15 minutes. The supernatant was removed, and 1.0 mL of petroleum ether was added to each tube. After mixing, the petroleum ether fraction was removed and samples from the bottom layer were transferred to a 96-well plate containing 300 µL of color reagent. All samples were read at a wavelength of 450 nm in an ELISA reader and the amount of glycogen was calculated according to a standard curve. The amount of glycogen present in pectoral sample was determined by multiplying the weight of the tissue by the amount of glycogen per 1 g of wet tissue.

[2] = system: cecal microbiota pathways; test: Cecal 16S rRNA gene sequencing, LEfSe analysis; conditions: genistein treatment; cecal contents
Experimental: as §1, with “analysis. […]” for “analysis.”

ZIP6 = test: Duodenal gene expression by RT-qPCR: ZIP6; conditions: 2.5 wt. % genistein vs all other treatment groups, p < 0.05; duodenum
Experimental: Cornish-cross fertile broiler eggs (Gallus gallus, n = 39) were obtained from a commercial hatchery (Moyer’s chicks, Quakertown, PA, USA). The eggs were incubated under optimal conditions at the Cornell University Animal Science Poultry Farm Incubator [18]. All animal protocols were approved by Cornell University Institutional Animal Care and Use committee (IACUC #2020-0077). At day 17 of embryonic incubation, eggs containing viable embryos were weighed and divided into 5 groups, with all treatment groups assigned eggs of similar weight frequency distribution. Each group was then injected with the specific solution (1 mL per egg) with a 21-gauge needle into the amniotic fluid. Treatments in powder form were separately diluted in DI H2O. […]
Total RNA was extracted from 30 mg of the proximal duodenal (n=6) or liver tissues (n=6) using Qiagen RNeasy Mini Kit (Qiagen Inc., Valencia, CA) according to the manufacturer’s protocol. […] RNA was quantified by absorbance at 260-280 nm using a NanoDrop 2000 (ThermoFisher Scientific, Waltham, MA). […]
As previously described. cDNA was generated using a 20 uL reverse transcriptase (RT) reaction in a BioRad C1000 touch thermocycler using the Improm-II Reverse Transcriptase Kit (Catalog #A1250; Promega, Madison, WI, USA). […] Genomic DNA contamination was assessed using a RT-PCR assay for the reference of genes samples. […]

O=c1c(-c2ccc(O)cc2)coc2cc(O)cc(O)c12 [Genistein, genistein]
Average Glycogen ([1]; 1.25 wt. % genistein intraamniotic): 0.008 ± 0.003 ^ab mg/g | Average Glycogen ([1]; 2.5 wt. % genistein intraamniotic): 0.015 ± 0.004 ^a mg/g | Average glycogen vs control ([1]; genistein treated groups vs no injection, p > 0.05): no significant difference | Pathways associated with de novo synthesis of vitamin B12 (LEfSe) [2]: enriched | Gene expression of ZIP6 (ZIP6): significantly downregulated
